Measurements as given in US20230167101A1, “NOVEL INHIBITORS OF HISTONE […] P300/CBP FOR CANCER THERAPY” (BAYLOR COLLEGE OF MEDICINE, priority 2020, published 2023).

Key:
Kasumi-1 = assay: Cell growth inhibition, Kasumi-1 (XTT); assay type: cell-based; conditions: Kasumi-1, 5 days; read-out: EC50, antiproliferative activity
Description: The anti-proliferation assays for non-breast cancer cells were done using a previously developed assay. In brief, for Kasumi-1 cells, […] were added into 96-well plates and cultured with increasing concentrations of a compound in RPMI-1640 medium supplemented with 20% fetal bovine serum and penicillin (100 U/mL) and streptomycin (100 µg/mL) at 37° C. in a 5% CO2 atmosphere with 100% humidity. For solid tumor cells, 10^5 cells per well were added into 96-well plates and cultured in Dulbecco’s Modified Eagle’s Medium (DMEM) supplemented with 10% fetal bovine serum and penicillin (100 U/mL) and streptomycin (100 µg/mL) overnight. Upon addition of increasing concentrations of a compound, cells were incubated for 5 days. Cell viability was assessed by using an XTT assay kit (Roche) for leukemia cells or an MTT assay (Sigma) for attachment cells. For the breast cancer MCF-7 cells, culture and inhibition assays were performed according to our previous methods in Ref. 25 and 26. Compound EC50 values were calculated from dose response curves using Prism 5.0.

[1] = tested on: ER+ breast cancer MCF-7 cells; assay: RNA sequencing / gene set enrichment analysis (GSEA); assay type: cell-based, human; conditions: MCF-7, 6 µM, 48 h, with estradiol 10 nM
Description: RNA sequencing was used to investigate how treatment with p300 HAT inhibitor 12 affects gene expression in ER^+ breast cancer MCF-7 cells. […] RNA sequencing data were mapped onto the human genome and gene expression profiles were determined and normalized. […] Gene set enrichment analysis (GSEA)(31) was used to analyze significant gene expression changes between these three groups of MCF-7 cells.
Upon starvation (culturing in phenol red-free DMEM medium with 10% charcoal treated FBS to remove hydrophobic hormones such as estrogens) for 7 days, MCF-7 cells were treated with the p300 inhibitor (6 µM) or DMSO control, in the presence or absence of (10 nM) estradiol (E2) for 48 hours. Total RNA was extracted using RNeasy Plus Mini Kit (Qiagen), according to the manufacturer’s instruction.
The RNA integrity for each sample was assessed with a RNA 6000 Nano chip on a 2100 Bioanalyzer (Agilent; Santa Clara, CA). The average RNA integrity score for the sample set was 6.48. Sequencing libraries were prepared using the TruSeq Stranded Total RNA Library Prep Kit (Illumina, Inc; San Diego, CA). Concisely, ribosomal RNA (rRNA) was depleted from total RNA where the remaining (ribo-depleted RNA) was purified, fragmented for 7.5 minutes, and primed for cDNA synthesis. […] The concentration of each library was determined by quantitative PCR (qPCR) by the KAPA Library Quantification Kit for Next Generation Sequencing (KAPA Biosystems; Woburn, MA).
Libraries were normalized to 50 nmol/L in 10 mM Tris-Cl, pH8.5 with 0.1% Tween 20 then pooled evenly. […] Sequencing-by-synthesis (SBS) was performed on a HiSeq 2500 utilizing v2 chemistry with paired-end 101 bp reads and a 6 bp index read culminating in an average output of 20 million paired-end reads (or 40 million total reads) per sample. Sequence read data were processed and converted to FASTQ format by Illumina BaseSpace analysis software (v2.0.13).
RNAseq data files were trimmed using Trim Galore!. […] Gene expression was assessed and fragments per kilobase of transcript per million (FPKM) values were determined using Stringtie. […]

human CBP HAT = molecular target: T1, human CBP HAT (Homo sapiens, UniProt Q92793); assay: CBP HAT inhibition assay; assay type: biochemical; conditions: read-out: IC50 against CBP HAT
T1 construct: made in house
T1 sequence (Q92793 1323-1700 limits assumed): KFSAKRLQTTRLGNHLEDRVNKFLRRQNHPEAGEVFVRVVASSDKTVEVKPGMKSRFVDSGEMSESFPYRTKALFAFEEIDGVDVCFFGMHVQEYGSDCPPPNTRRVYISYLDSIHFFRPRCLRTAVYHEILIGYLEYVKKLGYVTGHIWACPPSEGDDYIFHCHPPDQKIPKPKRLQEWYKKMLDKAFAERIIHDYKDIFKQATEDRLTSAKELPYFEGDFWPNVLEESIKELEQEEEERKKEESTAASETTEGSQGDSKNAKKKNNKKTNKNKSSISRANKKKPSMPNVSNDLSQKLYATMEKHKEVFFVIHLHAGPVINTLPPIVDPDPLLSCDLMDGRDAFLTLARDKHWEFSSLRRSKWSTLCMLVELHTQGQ
Description: Humans have three classes of histone/protein lysine acetyltransferases with distinct conserved motifs and structures, including p300/CBP, Gcn5-related N-acetyltransferase (GNAT) and MYST (MOZ, Ybf2, Sas2 and Tip60) family of HATs. […] CBP is a homolog of p300. […] PCAF (p300/CBP associating factor) is a member of the GNAT family, while Myst3 belongs to the MYST family of HATs.
The HAT domain (1195-1673) of human p300 was cloned, inserted into pGEX-KG vector and the DNA sequence was verified by sequencing. The p300-HAT expression plasmid was transformed into E. coli BL21-CodonPlus strain (Agilent) and cultured at 37° C. in LB medium containing ampicillin (50 µg/mL) and chloramphenicol (34 µg/mL). After the optical density of the bacterial culture reached ~0.9 at 600 nm, p300 HAT expression was induced by adding 300 µM isopropylthiogalactoside (IPTG) at 18° C. for 48 hours. Cells were collected, lysed, centrifuged for 20 min at 20,000 rpm. The supernatant was subjected to column chromatography with glutathione sepharose resins. […]
To determine inhibitory activity, a compound with concentrations ranging from 100 nM to 10 µM was incubated with p300-HAT (10 nM) in 20 µL of 50 mM phosphate buffer (pH = 7.0) containing 0.01% Brij-35 for 10 min at 25° C. […] Radioactivity on the filter paper was measured with a Beckman LS-6500 scintillation counter. […]

IC50 (human CBP HAT): 1.2 µM
SMILES: CC(C)(C)c1ccc(-c2cc(CNCC3CCNCC3)sc2-c2ccc(C(C)(C)C)cc2)cc1 [Compound 12]
EC50 (Kasumi-1): 2.6 µM
normalized enrichment score (NES), genes suppressed by p300 knockdown (GSE31873) ([1]; FIG. 7A): -3.32
NES, gene set upregulated by estradiol ([1]; FIG. 7B): -9.19
NES, genes suppressed by estradiol ([1]; FIG. 7C): 7.41
